The record followed here is ChEMBL document CHEMBL1671630, “Phenotypic characterization of two Ancylostoma caninum isolates with different susceptibilities to the anthelmintic pyrantel” (Antimicrob Agents Chemother, 2008).

Holding throughout (format): functional
Test [1] deals with Ancylostoma caninum. In words: Antiparasitic activity against Ancylostoma caninum isolate PR assessed as compound concentration required to inhibit parasitic contraction by larval arrested morphology assay.
Test [2] concerns Ancylostoma caninum. In words: Ratio of EC50 for Ancylostoma caninum isolate PR to […] by force transduction assay.
Test [3] has as its system Ancylostoma caninum. In words: Antiparasitic activity against Ancylostoma caninum isolate NT assessed as concentration of drug required to cause a force of contraction half that of the KCl-induced maximal contraction by force transduction assay.
Test [4] concerns Ancylostoma caninum. In words: Ratio of IC50 for Ancylostoma caninum isolate NT to IC50 for Ancylostoma caninum isolate PR by larval motility assay.
For test [5], the system named is Ancylostoma caninum. Put plainly: Antiparasitic activity against Ancylostoma caninum isolate NT assessed as compound concentration required to inhibit parasitic contraction by larval arrested morphology assay.
Test [6] deals with Ancylostoma caninum. Put plainly: Antiparasitic activity against Ancylostoma caninum isolate PR assessed as compound concentration required to inhibit parasitic contraction by larval motility assay.
Test [7] deals with Ancylostoma caninum. In words: Antiparasitic activity against Ancylostoma caninum isolate NT assessed as compound concentration required to inhibit parasitic contraction by larval motility assay.
Test [8] concerns Ancylostoma caninum. In words: Ratio of IC50 for Ancylostoma caninum isolate NT to IC50 for Ancylostoma caninum isolate PR by larval arrested morphology assay.
For test [9], the system named is Ancylostoma caninum. Put plainly: Antiparasitic activity against Ancylostoma caninum isolate PR assessed as concentration of drug required to cause a force of contraction half that of the KCl-induced maximal contraction by force transduction assay.

Broadly, the IC50 is the concentration at which inhibition is half-maximal. One may read the EC50 as the midpoint of the concentration-response curve. For the molecule `C[N+](C)(CCOc1ccccc1)Cc1ccccc1.O=C([O-])c1cc2ccccc2cc1O` [BEPHENIUM HYDROXYNAPHTHOATE], the IC50 was determined as 17 µM in test [1], 45 µM in [5], 8.6 µM in [6] and 19 µM in test [7]. Moreover, the “Ratio EC50” value in [2] was found to be 0.97. Further, the EC50 in test [3] worked out at 2880 µM; in [9], 2790 µM. For the same molecule, the “Ratio IC50” value in test [4] stood at 0.45; in test [8], 0.46.

For the molecule `Cl.c1ccc([C@H]2CN3CCSC3=N2)cc1` [LEVAMISOLE HYDROCHLORIDE], the IC50 came to 0.017 µM in test [1], 0.0022 µM in test [5], 0.004 µM in test [6] and 0.0015 µM in test [7]. Moreover, the “Ratio EC50” value in test [2] was determined as 2. The EC50 in test [3] was 120 µM; in test [9], 244 µM. Also, the “Ratio IC50” value is 2.7 in [4] and 7.2 in test [8].

As to `CN1CCC[C@H]1c1cccnc1` [NICOTINE], the IC50 in [1] is 6.2 µM; in test [5], 5.8 µM; in test [6], 3.6 µM; in test [7], 3.7 µM. The “Ratio EC50” value in [2] is 2.1. Besides, the EC50 worked out at 942 µM in test [3] and 1960 µM in test [9]. Besides, the “Ratio IC50” value in [4] came to 0.95; in test [8], 1.07.

`CN1CCCN=C1/C=C/c1cccs1` [PYRANTEL PAMOATE]: the IC50 in test [1] stood at 0.066 µM; in test [5] it was 0.0037 µM. In addition, the results for the concentration for a half-maximal effect (EC50) in test [3] and in test [9] were 217 µM and 681 µM, respectively.

As to `CN1CCCN=C1/C=C/c1cccs1.O=C(O)c1cc2ccccc2c(Cc2c(O)c(C(=O)O)cc3ccccc23)c1O` [PYRANTEL PAMOATE], in test [2], the “Ratio EC50” value is reported as 3.1. Further, in [8], the “Ratio IC50” value is on record as 18.3.
